Measurements: patent publication US8575203B2, “Chemical compounds” (Boehringer Ingelheim International GmbH, priority 2010, dated 2013)

Target: Recombinant human PDK1 enzyme (aa 52-556) (Homo sapiens (Human), UniProt O15530)
Experiment: PDK1 kinase assay
Assay type: biochemical
Details: in vitro kinase assay, His6-PDK1 (aa 52-556), PDKtide, P33-ATP
Procedure: The activity of the compounds according to the invention on the kinase PDK1 which inhibits the signal transduction pathway is determined in an in vitro kinase assay with recombinantly prepared protein:
Recombinant human PDK1 enzyme (aa 52-556) linked at its N-terminal end to His6 is isolated from baculovirus-infected insect cells. Purified enzyme may be obtained for example from the University of Dundee, Scotland. The following components are combined in a well of a 96-well round-based dish (Greiner bio-one, No. 650101): • 15 μL of compound to be tested in varying concentrations (e.g. starting at 10 μM, and diluted in steps of 1:5) in APT buffer (50 mM Tris/Cl pH 7.5; 0.05% β-mercaptoethanol; 10 mM Mg-acetate; 0.0166% Tween 20; 3.33% DMSO) • 15 μL His6-PDK1 (aa 52-556) 3.33 ng/well) and PDKtide ([…]), synthesised by Pepceuticals Limited, Nottingham, United Kingdom; 25 μM final concentration); His6-PDK1 and PDKtide are together diluted accordingly in assay buffer (50 mM tris pH 7.5, 0.05% β-mercaptoethanol, 10 mM Mg-acetate); PDKtide is present in this mixture as an 83.3 μM solution. These 30 μl are routinely incubated for 30 min at RT. • 20 μL ATP solution (25 μM ATP with 1.0 μCi/well gamma-P33-ATP). The final concentration of Tween 20 is 0.005%.
The reaction is started by adding the ATP solution and the mixture is incubated for 90 min at RT. At the start of the reaction the dishes are shaken gently. The reaction is stopped by the addition of 50 μL/well of 500 mM phosphoric acid (H3PO4) and incubated for about 20 min at RT. The precipitate is transferred by harvesting onto filter plates (96-well microtitre filter plate: UniFilter GF/C; Perkin Elmer; No. 6005174), then washed 6 times with 50 mM H3PO4 and dried at 60° C. Then the plate is stuck down with sealing tape, 25 μL/well of scintillation solution (Microscint 0; Perkin Elmer; No. 6013611) are added and the amount of P33 precipitated is measured using the Wallac Betacounter. The measured data are evaluated using Graphpad Prism software.

Chain of Recombinant human PDK1 enzyme (aa 52-556) (O15530 52-556): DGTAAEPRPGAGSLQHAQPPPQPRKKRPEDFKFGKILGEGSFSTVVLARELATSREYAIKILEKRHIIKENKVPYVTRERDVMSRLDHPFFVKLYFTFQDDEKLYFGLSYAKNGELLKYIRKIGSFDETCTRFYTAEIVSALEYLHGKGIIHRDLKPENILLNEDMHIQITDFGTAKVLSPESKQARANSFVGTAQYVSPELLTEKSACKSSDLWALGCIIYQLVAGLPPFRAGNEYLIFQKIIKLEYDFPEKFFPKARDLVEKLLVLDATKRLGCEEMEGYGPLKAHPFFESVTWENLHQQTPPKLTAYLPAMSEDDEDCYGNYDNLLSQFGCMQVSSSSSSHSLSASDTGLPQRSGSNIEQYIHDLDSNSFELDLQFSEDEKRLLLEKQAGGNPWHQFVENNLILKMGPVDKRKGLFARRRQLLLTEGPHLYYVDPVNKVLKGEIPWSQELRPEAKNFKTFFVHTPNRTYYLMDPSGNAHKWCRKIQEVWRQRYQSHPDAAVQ

SMILES | IC50
CNc1cnc2ccc(C#CCNC(=O)c3cncn(Cc4ccc(F)c(F)c4)c3=O)cc2n1 [I-14] | 0.027 µM
CCN1CCC(Nc2cnc3ccc(C#CCNC(=O)c4cncn(Cc5ccc(F)c(F)c5)c4=O)cc3n2)CC1 [I-22] | 0.006 µM
COC(C)CCOc1ccnc2ccc(C#CCNC(=O)c3cccn(Cc4ccc(F)c(F)c4)c3=O)cc12 (stereo not shown) [I-110] | 0.137 µM
COCCN1CCC(Nc2cnc3ccc(C#CCNC(=O)c4cccn([C@@H](CO)c5ccc(F)c(F)c5)c4=O)cc3n2)CC1 [I-48] | 0.003 µM
N[C@H]1CC[C@H](Nc2cnc3ccc(C#CCNC(=O)c4cncn(Cc5ccc(F)c(F)c5)c4=O)cc3n2)CC1 [I-34] | 0.003 µM
O=C(NCC#Cc1ccc2ncnc(NCCCn3ccnc3)c2c1)c1cncn(Cc2ccc(F)c(F)c2)c1=O [II-11] | 0.135 µM
O=C(NCC#Cc1ccc2nccc(OCC3CCOC3)c2c1)c1cccn(C(CO)c2ccc(F)c(F)c2)c1=O (stereo not shown) [I-125.4] | 0.012 µM
CN(C)CCCN(C)c1cnc2ccc(C#CCNC(=O)c3cncn(Cc4ccc(F)c(F)c4)c3=O)cc2n1 [I-13] | 0.034 µM
O=C(NCC#Cc1ccc2ncnc(NC3CCN(CCO)CC3)c2c1)c1cncn(Cc2ccc(F)c(F)c2)c1=O [II-24] | 0.077 µM
CNc1ncnc2ccc(C#CCNC(=O)c3cc(OC)nn(Cc4ccc(F)c(F)c4)c3=O)cc12 [II-59] | 0.009 µM
CNc1ncnc2ccc(C#CCNC(=O)c3cccn(Cc4ccoc4)c3=O)cc12 [II-51] | 0.77 µM
O=C(NCC#Cc1ccc2nccc(OCC3CCOCC3)c2c1)c1cccn(C(CO)c2ccc(F)c(F)c2)c1=O (stereo not shown) [I-125.16] | 0.011 µM
CC(C)(CO)CNc1ncnc2ccc(C#CCNC(=O)c3cccn(Cc4ccc(F)c(F)c4)c3=O)cc12 [II-32] | 0.124 µM
CCN1CCC(Nc2cnc3ccc(C#CCNC(=O)c4cccn([C@@H](CO)c5ccc(F)c(F)c5)c4=O)cc3n2)CC1 [I-50] | 0.001 µM
COc1ccc(CCNc2ncnc3ccc(C#CCNC(=O)c4cncn(Cc5ccc(F)c(F)c5)c4=O)cc23)cc1 [II-18] | 0.041 µM
CCN(CC)c1c(C#N)cnc2ccc(C#CCNC(=O)c3cccn(Cc4ccc(F)c(F)c4)c3=O)cc12 [II-100] | 0.276 µM
COC(=O)c1cnc2ccc(C#CCNC(=O)c3cncn(Cc4ccc(F)c(F)c4)c3=O)c(C)c2c1 [I-82] | 0.119 µM
O=C(NCC#Cc1ccc2ncnc(N3CC[C@H](O)C3)c2c1)c1cccn(Cc2ccc(F)c(F)c2)c1=O [II-31] | 0.114 µM
CN1CCCC1CCNc1ncnc2ccc(C#CCNC(=O)c3cccn(Cc4ccc(F)c(F)c4)c3=O)cc12 (stereo not shown) [II-39] | 0.137 µM
O=C(NCC#Cc1ccc2ncc(NC3CCNCC3)nc2c1)c1cncn(Cc2ccc(F)c(F)c2)c1=O [I-27] | 0.003 µM
O=C(NCC#Cc1ccc2nccc(OCC3CCOCC3)c2c1)c1cncn(Cc2ccc(F)c(F)c2)c1=O [I-125.6] | 0.026 µM
O=C(NCC#Cc1ccc2ncccc2c1)c1cncn(Cc2ccc(F)c(F)c2)c1=O [I-80] | 0.132 µM

SMILES | IC50
O=C(NCC#Cc1ccc2ncc(NC3CCN(C4COC4)CC3)nc2c1)c1ccnn(Cc2ccc(F)c(F)c2)c1=O [I-54] | 0.008 µM
CN(C)CCNc1ncnc2ccc(C#CCNC(=O)c3cncn(Cc4ccc(F)c(F)c4)c3=O)cc12 [II-10] | 0.229 µM
NC(=O)[C@@H](Cc1ccccc1)Nc1ncnc2ccc(C#CCNC(=O)c3cncn(Cc4ccc(F)c(F)c4)c3=O)cc12 [II-17] | 0.488 µM
CN(C)c1ncnc2ccc(C#CCNC(=O)c3cncn(Cc4ccc(F)c(F)c4)c3=O)cc12 [II-4] | 0.026 µM
O=C(NCC#Cc1ccc2ncc(NC3CCN(C4COC4)CC3)nc2c1)c1cccn([C@H](CO)c2cccc(F)c2)c1=O [I-63] | 0.004 µM
CCN(CC)c1ncnc2ccc(C#CCNC(=O)c3c(C)n(CCO)n(Cc4ccc(F)c(F)c4)c3=O)cc12 [II-49] | 0.05 µM
CCNC(=O)c1cnc2ccc(C#CCNC(=O)c3cncn(Cc4ccc(F)c(F)c4)c3=O)cc2c1 [II-76] | 0.031 µM
CN(C)CCNc1ccnc2ccc(C#CCNC(=O)c3cccn(Cc4ccc(F)c(F)c4)c3=O)cc12 [I-118] | 0.853 µM
CN(C)CCCNC(=O)c1cnc2ccc(C#CCNC(=O)c3cncn(Cc4ccc(F)c(F)c4)c3=O)cc2c1 [II-68] | 0.02 µM
CCN(CC)C(=O)c1cnc2ccc(C#CCNC(=O)c3cncn(Cc4ccc(F)c(F)c4)c3=O)cc2c1 [II-71] | 1 µM
CCN1CC[C@@H](Nc2cnc3ccc(C#CCNC(=O)c4cncn(Cc5ccc(F)c(F)c5)c4=O)cc3n2)[C@@H](F)C1 [I-45] | 0.008 µM
O=C(NCC#Cc1ccc2ncc(N[C@H]3CC[C@H](N4CCOCC4)CC3)nc2c1)c1cccn([C@H](CO)c2cccc(F)c2)c1=O [I-64] | 0.005 µM
CN(c1c(C#N)cnc2ccc(C#CCNC(=O)c3cccn(Cc4ccc(F)c(F)c4)c3=O)cc12)C1CCCCC1 [II-95] | 0.544 µM
CCN1CCC(Nc2cnc3ccc(C#CCNC(=O)c4cccn([C@@H](C)c5ccc(F)c(F)c5)c4=O)cc3c2)CC1 [I-75] | 0.001 µM
COCCN1CCN(C(=O)c2cnc3ccc(C#CCNC(=O)c4cncn(Cc5ccc(F)c(F)c5)c4=O)cc3c2)CC1 [II-85] | 1 µM
CN(C)CCCN(C)C(=O)c1cnc2ccc(C#CCNC(=O)c3cncn(Cc4ccc(F)c(F)c4)c3=O)cc2c1 [II-79] | 0.201 µM
COCCN1CCC(Nc2cnc3ccc(C#CCNC(=O)c4cccn([C@@H](C)c5ccc(F)c(F)c5)c4=O)cc3c2)CC1 [I-78] | 0.009 µM
CN(C)CCCOc1ccnc2ccc(C#CCNC(=O)c3cccn(Cc4ccc(F)c(F)c4)c3=O)cc12 [I-93] | 0.012 µM
O=C(NCC#Cc1ccc2ncnc(NCCc3ccccn3)c2c1)c1cncn(Cc2ccc(F)c(F)c2)c1=O [II-7] | 0.105 µM
O=C(NCC#Cc1ccc2ncc(O)cc2c1)c1cncn(Cc2ccc(F)c(F)c2)c1=O [I-86] | 0.086 µM
CNc1ncnc2ccc(C#CCNC(=O)c3cccn(Cc4ccc(F)c(F)c4)c3=O)c(C)c12 [I-3] | 0.008 µM
O=C(NCC#Cc1ccc2ncnc(-c3ccccc3)c2c1)c1cncn(Cc2ccc(F)c(F)c2)c1=O [II-65] | 0.058 µM

SMILES | IC50
CN(C)CCCOc1cnc2ccc(C#CCNC(=O)c3cncn(Cc4ccc(F)c(F)c4)c3=O)cc2n1 [I-17] | 0.095 µM
O=C(NCC#Cc1ccc2ncc(N[C@H]3CC[C@H](N4CCOCC4)CC3)nc2c1)c1cccn([C@H](CO)c2ccccc2)c1=O [I-59] | 0.005 µM
CC(C)Oc1ccnc2ccc(C#CCNC(=O)c3cncn(Cc4ccc(F)c(F)c4)c3=O)cc12 [I-97] | 0.038 µM
COCCN1CCC(Nc2cnc3ccc(C#CCNC(=O)c4cccn([C@@H](CO)c5ccc(F)c(F)c5)c4=O)cc3c2)CC1 [I-77] | 0.004 µM
O=C(NCC#Cc1ccc2nccc(OCC3CCCO3)c2c1)c1cncn(Cc2ccc(F)c(F)c2)c1=O (stereo not shown) [I-121] | 0.156 µM
Cc1n[nH]cc1-c1ccnc2ccc(C#CCNC(=O)c3cncn(Cc4ccc(F)c(F)c4)c3=O)cc12 [II-93] | 0.024 µM
CN(C)CC(C)(C)CNc1cnc2ccc(C#CCNC(=O)c3cncn(Cc4ccc(F)c(F)c4)c3=O)cc2n1 [I-25] | 0.042 µM
CN(C)C1CCN(c2ncnc3ccc(C#CCNC(=O)c4cccn(Cc5ccc(F)c(F)c5)c4=O)cc23)CC1 [II-40] | 0.074 µM
CN1CCCC(NC(=O)c2cnc3ccc(C#CCNC(=O)c4cncn(Cc5ccc(F)c(F)c5)c4=O)cc3c2)C1 (stereo not shown) [II-80] | 0.064 µM
CN(c1ncnc2ccc(C#CCNC(=O)c3cncn(Cc4ccc(F)c(F)c4)c3=O)cc12)C1CCCCC1 [II-22] | 0.371 µM
O=C(NCC#Cc1ccc2ncnc(C3=CCNCC3)c2c1)c1cncn(Cc2ccc(F)c(F)c2)c1=O [II-67] | 0.096 µM
O=C(NCC#Cc1ccc2ncc(C(=O)N3CCOCC3)cc2c1)c1cncn(Cc2ccc(F)c(F)c2)c1=O [II-82] | 0.531 µM
CN(C)CC(O)COc1ccnc2ccc(C#CCNC(=O)c3cncn(Cc4ccc(F)c(F)c4)c3=O)cc12 (stereo not shown) [I-104] | 0.071 µM
CN1CC[C@@H](COc2ccnc3ccc(C#CCNC(=O)c4cccn(Cc5cc(F)c(F)c(F)c5)c4=O)cc23)C1 [I-125.12] | 0.006 µM
CNC(=O)c1cnc2ccc(C#CCNC(=O)c3cncn(Cc4ccc(F)c(F)c4)c3=O)c(C)c2c1 [II-69] | 0.021 µM
CC(c1ccc(F)c(F)c1)n1cccc(C(=O)NCC#Cc2ccc3nccc(OCCCN(C)C)c3c2)c1=O (stereo not shown) [I-124] | 0.002 µM
CCN(CC)c1ncnc2ccc(C#CCNC(=O)c3cccn(C(C)c4ccc(F)c(F)c4)c3=O)cc12 (stereo not shown) [II-54] | 0.008 µM
CN(Cc1ccccc1)c1ncnc2ccc(C#CCNC(=O)c3cncn(Cc4ccc(F)c(F)c4)c3=O)cc12 [II-5] | 0.016 µM
CNc1ncnc2ccc(C#CCNC(=O)c3cncn(Cc4ccccc4F)c3=O)cc12 [II-53] | 0.486 µM
CN(Cc1cccc2ncccc12)c1ncnc2ccc(C#CCNC(=O)c3cccn(Cc4ccc(F)c(F)c4)c3=O)cc12 [II-46] | 0.006 µM
